Assay type in all cases: biochemical
In one test the target is PI3Kα (Homo sapiens, UniProt P42336). The test is described as follows: PI3K-alpha fluorescence polarization assay. The following applies: 20 μM PIP2, 25 μM ATP; read-out: PI3Kα Median IC50. In general terms: Fluorescence polarisation rises when a labelled molecule tumbles more slowly, as on binding a larger partner.
A further test concerns the target PI3Kγ (Homo sapiens, UniProt P48736). The test can be described thus: PI3K-gamma fluorescence polarization assay. The following applies: 20 μM PIP2, 25 μM ATP; read-out: PI3Kγ Median IC50. The method, then: PI3K-alpha and PI3K-gamma Fluorescence Polarization Assay Protocols
The reaction buffer was 20 mM HEPES pH 7.5, 2 mM MgCl2, 0.05% CHAPS, and 0.01% βME (added fresh). The substrate solution was 40 μM PIP2 (diC8, Echelon, Salt Lake City Utah cat # P-4508, 1 mM in water) and 50 μM ATP in the reaction buffer. Nunc 384-well black polypropylene fluorescent plates were used for PI3K assays. The assay is run by putting 9.5 μl of freshly diluted enzyme in the reaction buffer per well, adding 0.5 μl of diluted drug or DMSO, and mixing. Then 10 μl of the substrate solution is added to each well to start the reaction. A final concentration of 20 μM PIP2 and 25 μM ATP in the reaction was used. Reactions were allowed to proceed for 30-60 minutes at room temperature. After 30-60 minutes, 20 μl of a solution of 10 nM TAMRA detector (Red detector probe-Echelon) and 2.5 μM of GST-murineGRP (1.5 mg/ml in 17% glycerol) was added per well to stop the reaction. The resulting solution was mixed well and allowed to stand for 90-110 minutes before reading plate. Assay Plates were read on Perkin-Elmer Envision plate readers with appropriate filters for Tamra [BODIPY-TMRI(1,3,4,5)P4]. Data obtained were used to calculate enzymatic activity and enzyme inhibition by inhibitor compounds. It is important to keep Red probe solutions dark. This procedure is adapted from Echelon Biosciences Inc procedure for their PI3-Kinase fluorescence polarization activity Assay kit Product number K-1100.

The target of the next test is T1, mTOR Kinase (FLAG-TOR) (Homo sapiens, UniProt P42345).
T1 construct: FLAG
The test can be described thus: mTOR kinase assay, purified enzyme, DELFIA format. The following applies: 100 μM ATP, 1.25 μM His6-S6K; read-out: mTOR Kinase Median IC50.

In US20100003250A1, “(2-ARYL-7H-PYRROLO[2,3-D]PYRIMIDIN-4-YL)MORPHOLINE COMPOUNDS, THEIR USE AS MTOR KINASE AND PI3 KINASE INHIBITORS, AND THEIR SYNTHESES” (Wyeth, priority 2008, published 2010) one finds IC50 data, which are given here for ten molecules.

Chain of PI3Kγ (P48736 whole entry, species assumed): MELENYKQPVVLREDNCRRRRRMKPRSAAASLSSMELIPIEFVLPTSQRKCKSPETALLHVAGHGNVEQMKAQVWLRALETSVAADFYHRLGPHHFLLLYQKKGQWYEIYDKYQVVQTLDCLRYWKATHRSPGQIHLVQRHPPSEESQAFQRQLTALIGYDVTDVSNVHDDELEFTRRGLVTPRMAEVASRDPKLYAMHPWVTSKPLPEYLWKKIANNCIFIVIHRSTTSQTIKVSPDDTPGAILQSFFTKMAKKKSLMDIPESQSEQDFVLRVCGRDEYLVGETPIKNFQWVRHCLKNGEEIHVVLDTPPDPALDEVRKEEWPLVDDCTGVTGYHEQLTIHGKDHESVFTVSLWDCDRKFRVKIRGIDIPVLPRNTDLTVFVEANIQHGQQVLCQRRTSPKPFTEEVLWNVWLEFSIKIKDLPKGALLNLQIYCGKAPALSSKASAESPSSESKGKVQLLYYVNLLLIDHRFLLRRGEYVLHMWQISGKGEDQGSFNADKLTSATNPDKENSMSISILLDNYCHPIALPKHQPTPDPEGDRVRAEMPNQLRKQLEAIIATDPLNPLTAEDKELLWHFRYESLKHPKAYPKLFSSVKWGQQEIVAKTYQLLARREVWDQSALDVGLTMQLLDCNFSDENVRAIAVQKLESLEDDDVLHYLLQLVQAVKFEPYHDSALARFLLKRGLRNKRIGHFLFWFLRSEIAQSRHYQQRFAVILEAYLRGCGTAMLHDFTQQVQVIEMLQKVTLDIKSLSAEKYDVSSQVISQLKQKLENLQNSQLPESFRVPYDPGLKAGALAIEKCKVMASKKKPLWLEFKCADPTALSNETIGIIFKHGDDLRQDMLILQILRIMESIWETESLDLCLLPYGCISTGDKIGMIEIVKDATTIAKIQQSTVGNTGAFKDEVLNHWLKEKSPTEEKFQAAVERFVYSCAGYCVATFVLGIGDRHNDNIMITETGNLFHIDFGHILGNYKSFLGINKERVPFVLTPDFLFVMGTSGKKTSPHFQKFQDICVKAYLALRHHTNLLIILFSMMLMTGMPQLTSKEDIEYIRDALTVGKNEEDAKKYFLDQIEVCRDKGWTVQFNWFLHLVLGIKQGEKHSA
Chain of PI3Kα (P42336 whole entry, species assumed): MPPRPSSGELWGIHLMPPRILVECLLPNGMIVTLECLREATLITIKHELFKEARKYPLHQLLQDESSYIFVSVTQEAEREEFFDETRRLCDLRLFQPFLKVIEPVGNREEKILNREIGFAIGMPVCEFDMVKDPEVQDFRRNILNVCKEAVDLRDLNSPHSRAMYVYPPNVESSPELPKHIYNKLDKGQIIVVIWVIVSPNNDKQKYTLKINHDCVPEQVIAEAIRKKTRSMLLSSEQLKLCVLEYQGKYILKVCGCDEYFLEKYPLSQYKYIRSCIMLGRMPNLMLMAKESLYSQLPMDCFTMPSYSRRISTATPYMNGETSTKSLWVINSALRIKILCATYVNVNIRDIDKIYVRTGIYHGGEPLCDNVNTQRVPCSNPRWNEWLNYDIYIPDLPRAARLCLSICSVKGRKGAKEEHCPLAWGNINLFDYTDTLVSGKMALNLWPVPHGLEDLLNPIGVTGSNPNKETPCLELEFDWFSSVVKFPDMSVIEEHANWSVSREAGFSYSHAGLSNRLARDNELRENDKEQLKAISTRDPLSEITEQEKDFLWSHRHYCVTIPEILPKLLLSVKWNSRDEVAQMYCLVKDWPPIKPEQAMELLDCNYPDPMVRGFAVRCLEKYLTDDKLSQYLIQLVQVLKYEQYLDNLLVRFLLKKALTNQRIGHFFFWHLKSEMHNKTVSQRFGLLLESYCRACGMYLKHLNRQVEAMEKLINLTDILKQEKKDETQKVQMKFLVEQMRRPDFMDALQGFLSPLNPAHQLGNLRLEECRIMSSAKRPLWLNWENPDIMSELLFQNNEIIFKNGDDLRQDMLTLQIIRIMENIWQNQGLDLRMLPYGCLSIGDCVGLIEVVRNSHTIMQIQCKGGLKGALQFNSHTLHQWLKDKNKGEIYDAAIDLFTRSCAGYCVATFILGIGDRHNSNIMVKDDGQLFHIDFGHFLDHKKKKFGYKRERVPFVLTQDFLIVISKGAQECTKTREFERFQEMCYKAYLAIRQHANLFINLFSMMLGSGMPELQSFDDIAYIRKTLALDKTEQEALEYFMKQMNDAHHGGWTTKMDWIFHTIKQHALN
Chain of PI3Kα (P27986 whole entry partner, species assumed): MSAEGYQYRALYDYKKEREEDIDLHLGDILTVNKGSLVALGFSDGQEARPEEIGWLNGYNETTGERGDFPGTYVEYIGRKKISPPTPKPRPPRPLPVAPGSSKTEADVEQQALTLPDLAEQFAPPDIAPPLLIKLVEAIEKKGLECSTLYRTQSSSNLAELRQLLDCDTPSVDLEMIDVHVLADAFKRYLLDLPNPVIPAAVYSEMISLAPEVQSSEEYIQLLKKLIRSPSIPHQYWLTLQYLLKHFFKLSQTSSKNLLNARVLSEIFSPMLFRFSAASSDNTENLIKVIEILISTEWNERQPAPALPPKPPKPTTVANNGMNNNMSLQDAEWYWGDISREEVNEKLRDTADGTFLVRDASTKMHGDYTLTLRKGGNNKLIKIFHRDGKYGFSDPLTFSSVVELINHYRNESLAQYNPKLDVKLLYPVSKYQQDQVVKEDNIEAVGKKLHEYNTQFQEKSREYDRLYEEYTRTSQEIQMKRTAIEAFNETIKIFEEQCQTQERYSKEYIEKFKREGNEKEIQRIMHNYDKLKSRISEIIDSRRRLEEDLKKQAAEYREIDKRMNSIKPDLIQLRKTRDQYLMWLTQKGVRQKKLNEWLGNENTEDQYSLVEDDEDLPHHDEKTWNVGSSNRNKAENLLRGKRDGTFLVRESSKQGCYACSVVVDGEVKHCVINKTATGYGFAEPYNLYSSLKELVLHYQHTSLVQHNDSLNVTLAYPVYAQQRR

`COC(=O)c1ccc(NC(=O)Nc2ccc(-c3nc(N4CCOCC4)c4ccn(C(C)C)c4n3)cc2)cc1` [Compound 89, methyl 4-({[4-(7-isopropyl-4-morpholin-4-yl-7H-pyrrolo[2,3-d]pyrimidin-2-yl)phenyl]carbamoyl}amino)benzoate]: the IC50 on PI3Kα was determined as 0.116 µM; on PI3Kγ it was 0.511 µM; at mTOR Kinase (FLAG-TOR), 0.0048 µM.

Consider `CC(C)n1ccc2c(N3CCOCC3)nc(-c3ccc(NC(=O)Nc4ccc(C(=O)N5CCNCC5)cc4)cc3)nc21` [Compound 83, 1-[4-(7-isopropyl-4-morpholin-4-yl-7H-pyrrolo[2,3-d]pyrimidin-2-yl)phenyl]-3-[4-(piperazin-1-ylcarbonyl)phenyl]urea], for which the IC50 was below 0.0023 µM on PI3Kα, 0.013 µM at PI3Kγ and 0.00064 µM at mTOR Kinase (FLAG-TOR).

For the molecule `CNCCn1ccc2c(N3CCOCC3)nc(-c3ccc(NC(=O)Nc4ccncc4)cc3)nc21` [Compound 33, 1-(4-{7-[2-(methylamino)ethyl]-4-morpholin-4-yl-7H-pyrrolo[2,3-d]pyrimidin-2-yl}phenyl)-3-pyridin-4-ylurea], the values for the IC50 on PI3Kα, on PI3Kγ and at mTOR Kinase (FLAG-TOR) were 0.012 µM, 0.1 µM and 0.0053 µM, respectively.

Turning to `CCn1cc(CN(C)C)c2c(N3CCOCC3)nc(-c3ccc(NC(=O)NC)cc3)nc21` [Compound 97, 1-(4-{5-[(dimethylamino)methyl]-7-ethyl-4-morpholin-4-yl-7H-pyrrolo[2,3-d]pyrimidin-2-yl}phenyl)-3-methylurea], the IC50 at PI3Kα was found to be 1.89 µM; on PI3Kγ, 12 µM; on mTOR Kinase (FLAG-TOR), 0.047 µM.

As to `CCn1ccc2c(N3CCOCC3)nc(-c3ccc(NC(=O)Nc4ccc(C(=O)OC)cc4)cc3)nc21` [Compound 59, methyl 4-({[4-(7-ethyl-4-morpholin-4-yl-7H-pyrrolo[2,3-d]pyrimidin-2-yl)phenyl]carbamoyl}amino)benzoate], the IC50 was 0.166 µM on PI3Kα, 0.562 µM on PI3Kγ and 0.0047 µM on mTOR Kinase (FLAG-TOR).

As for `CC(C)n1ccc2c(N3CCOCC3)nc(-c3ccc(NC(=O)Nc4ccc(OCCN(C)C)cc4)cc3)nc21` [Compound 81, 1-{4-[2-(dimethylamino)ethoxy]phenyl}-3-[4-(7-isopropyl-4-morpholin-4-yl-7H-pyrrolo[2,3-d]pyrimidin-2-yl)phenyl]urea], the IC50 on PI3Kα amounted to 0.034 µM; at PI3Kγ it was 0.219 µM; at mTOR Kinase (FLAG-TOR), 0.00295 µM.

In the case of `CCn1ccc2c(N3CCOCC3)nc(-c3ccc(NC(=O)Nc4ccc(C(=O)NCCOC)cc4)cc3)nc21` [Compound 78, 4-({[4-(7-ethyl-4-morpholin-4-yl-7H-pyrrolo[2,3-d]pyrimidin-2-yl)phenyl]carbamoyl}amino)-N-(2-methoxyethyl)benzamide], the figures for the IC50 at PI3Kα, on PI3Kγ and at mTOR Kinase (FLAG-TOR) were 0.0095 µM, 0.118 µM and 0.00115 µM, respectively.

In the case of `CN(C)CCOc1ccc(NC(=O)Nc2ccc(-c3nc(N4CCOCC4)c4ccn(CC(F)(F)F)c4n3)cc2)cc1` [Compound 58, 1-{4-[2-(dimethylamino)ethoxy]phenyl}-3-{4-[4-morpholin-4-yl-7-(2,2,2-trifluoroethyl)-7H-pyrrolo[2,3-d]pyrimidin-2-yl]phenyl}urea], the IC50 at PI3Kα was 0.002 µM; at PI3Kγ it was 0.011 µM; on mTOR Kinase (FLAG-TOR) it was 0.0045 µM.

Consider `CC(C)NCCn1ccc2c(N3CCOCC3)nc(-c3ccc(NC(=O)Nc4ccncc4)cc3)nc21` [Compound 32, 1-(4-{7-[2-(isopropylamino)ethyl]-4-morpholin-4-yl-7H-pyrrolo[2,3-d]pyrimidin-2-yl}phenyl)-3-pyridin-4-ylurea], for which the IC50 came to 0.037 µM at PI3Kα, 0.245 µM at PI3Kγ and 0.023 µM at mTOR Kinase (FLAG-TOR).

For the molecule `CC(C)n1ccc2c(N3CCOCC3)nc(-c3ccc(NC(=O)Nc4ccc(C(=O)N5CCC(N(C)C)CC5)cc4)cc3)nc21` [Compound 84, 1-(4-{[4-(dimethylamino)piperidin-1-yl]carbonyl}phenyl)-3-[4-(7-isopropyl-4-morpholin-4-yl-7H-pyrrolo[2,3-d]pyrimidin-2-yl)phenyl]urea], the IC50 on PI3Kα is 0.004 µM; at PI3Kγ, 0.038 µM; at mTOR Kinase (FLAG-TOR) it was 0.0008 µM.

Broadly, the IC50 is the point on the concentration scale where inhibition reaches its midpoint.
